Data: US20260231590A1, “AROMATIC COMPOUND, ORGANIC SEMICONDUCTOR LAYER AND ORGANIC THIN FILM TRANSISTOR” (TOSOH CORPORATION, priority 2023, published 2026)

How the values were obtained:
Type in all cases: physicochemical
[1] = Solution for forming an organic semiconductor layer: dissolved in toluene at 50° C., state after cooling to 25° C.; conditions: 0.44 mg in 434 mg of toluene, heated to 50° C., allowed to cool at room temperature (25° C.)
[2] = as above; conditions: 0.20% by weight in toluene, dissolved at 50° C., after 10 hours at 25° C.
Method: In air, 1.74 mg of the 2,8-di(2-cyclohexylethyl)anthra[1,2-b:5,6-b′]dithiophene synthesized in Example 2 (compound 2) and 868 mg of toluene (FUJIFILM Wako Pure Chemical Industries Corporation, pure grade) were added to a 10-ml sample tube. After dissolution by heating to 50° C., the solution was allowed to cool at room temperature (25° C.), whereby a solution for forming an organic semiconductor layer was prepared. […] (the concentration of compound 2 was 0.20% by weight), confirming that compound 2 is a compound suitable for film formation by drop casting and inkjet printing.

[3] = Evaluation of solubility in organic solvents; conditions: room temperature (25° C.), complete dissolution by visual observation
Method: Toluene and n-octane were each added to predetermined amounts of the aromatic compounds obtained in Examples 1, 4, 5, 6, 7, 8, 9, 12, 13, 14, 15, 18, 19, 20, 22 and 23 to give compositions for film formation. The weight of each organic solvent required to completely dissolve the aromatic compound at room temperature (25° C.) was measured, and solubility (% by weight) was calculated. The determination of the point of complete dissolution was confirmed by visual observation.

Row | SMILES | state of solution for forming an organic semiconductor layer [1] | state of solution for forming an organic semiconductor layer [2] | Solubility [% by weight] n-octane [3] | Solubility [% by weight] Toluene [3]
1 | c1ccc(-c2ccc3c(c2)sc2c4ccc(-c5ccccc5)cc4sc32)cc1 [2,7-diphenyl[1]benzothieno[3,2-b][1]benzothiophene] | solid precipitation observed |  |  | 
2 | CCCCCCCCc1cc2ccc3cc4c(ccc5cc(CCCCCCCC)sc54)cc3c2s1 [2,8-dioctylanthra[1,2-b:5,6-b′]dithiophene, reference compound] |  | remained in solution form |  | 
3 | c1cc2ccc3cc4c(ccc5cc(CCC6CCCCC6)sc54)cc3c2s1 [Compound 1, 2-(2-Cyclohexylethyl)anthra[1,2-b:5,6-b′]dithiophene] |  |  | ≥0.1 % by weight | ≥1.0 % by weight
4 | c1cc2cc(CCC3CCCCC3)sc2c2cc3ccc4cc(CCC5CCCCC5)sc4c3cc12 [Compound 2, 2,8-Di(2-cyclohexylethyl)anthra[1,2-b:5,6-b′]dithiophene] |  | remained in solution form |  | 
5 | CCCc1cc2ccc3cc4c(ccc5cc(CCC6CCCCC6)sc54)cc3c2s1 [Compound 4, 2-(2-Cyclohexylethyl)-8-propylanthra[1,2-b:5,6-b′]dithiophene] |  |  | ≥0.5 % by weight | ≥1.0 % by weight
6 | CC(C)Cc1cc2ccc3cc4c(ccc5cc(CCC6CCCCC6)sc54)cc3c2s1 [Compound 5, 2-(2-Cyclohexylethyl)-8-isobutylanthra[1,2-b:5,6-b′]dithiophene] |  |  | ≥0.2 % by weight | ≥1.0 % by weight
7 | CCCCc1cc2ccc3cc4c(ccc5cc(CCC6CCCCC6)sc54)cc3c2s1 [Compound 6, 2-Butyl-8-(2-cyclohexylethyl)anthra[1,2-b:5,6-b′]dithiophene] |  |  | ≥0.5 % by weight | ≥1.0 % by weight
8 | CCCCCc1cc2ccc3cc4c(ccc5cc(CCC6CCCCC6)sc54)cc3c2s1 [Compound 7, 2-(2-Cyclohexylethyl)-8-pentylanthra[1,2-b:5,6-b′]dithiophene] |  |  | ≥0.2 % by weight | ≥1.0 % by weight
9 | CCCCCCc1cc2ccc3cc4c(ccc5cc(CCC6CCCCC6)sc54)cc3c2s1 [Compound 8, 2-(2-Cyclohexylethyl)-8-hexylanthra[1,2-b:5,6-b′]dithiophene] |  | remained in solution form | ≥0.5 % by weight | ≥1.0 % by weight
10 | c1cc2ccc3cc4c(ccc5cc(CCC6CCCC6)sc54)cc3c2s1 [Compound 9, 2-(2-Cyclopentylethyl) anthra[1,2-b:5,6-b′]dithiophene] |  |  | ≥1.0 % by weight | ≥1.0 % by weight
11 | c1cc2cc(CCC3CCCC3)sc2c2cc3ccc4cc(CCC5CCCC5)sc4c3cc12 [Compound 10, 2,8-Di(2-cyclopentylethyl)anthra[1,2-b:5,6-b′]dithiophene] |  | remained in solution form |  | 
12 | CC(C)Cc1cc2ccc3cc4c(ccc5cc(CCC6CCCC6)sc54)cc3c2s1 [Compound 12, 2-(2-Cyclopentylethyl)-8-isobutylanthra[1,2-b:5,6-b′]dithiophene] |  | remained in solution form | ≥0.5 % by weight | ≥1.0 % by weight
13 | CCCCCCc1cc2ccc3cc4c(ccc5cc(CCC6CCCC6)sc54)cc3c2s1 [Compound 13, 2-(2-Cyclopentylethyl)-8-hexylanthra[1,2-b:5,6-b′]dithiophene] |  | remained in solution form | ≥0.5 % by weight | ≥1.0 % by weight
14 | c1cc2cc(CCC3CCCCC3)sc2c2cc3ccc4cc(CCC5CCCC5)sc4c3cc12 [Compound 14, 2-(2-Cyclohexylethyl)-8-(2-cyclopentylethyl)anthra[1,2-b:5,6-b′]dithiophene] |  | remained in solution form | ≥1.0 % by weight | ≥1.0 % by weight
15 | c1cc2ccc3cc4c(ccc5cc(CCCC6CCCCC6)sc54)cc3c2s1 [Compound 15, 2-(3-Cyclohexylpropyl)anthra[1,2-b:5,6-b′]dithiophene] |  |  | ≥0.5 % by weight | ≥1.0 % by weight
16 | CCCCCCc1cc2ccc3cc4c(ccc5cc(CCCC6CCCCC6)sc54)cc3c2s1 [Compound 18, 2-(3-Cyclohexylpropyl)-8-hexylanthra[1,2-b:5,6-b′]dithiophene] |  | remained in solution form | ≥0.2 % by weight | ≥1.0 % by weight
17 | c1cc2ccc3c(c2s1)-c1ccc2cc(CCC4CCCCC4)sc2c1-3 [Compound 19, 2-(2-Cyclohexylethyl) biphenyleno[1,2-b:5,6-b′]dithiophene] |  |  | ≥0.5 % by weight | ≥1.0 % by weight
18 | c1cc2cc(CCC3CCCCC3)sc2c2c1-c1c-2ccc2cc(CCC3CCCCC3)sc12 [Compound 20, 2,7-Bis(2-cyclohexylethyl)biphenyleno[1,2-b:5,6-b′]dithiophene] |  | remained in solution form | ≥0.5 % by weight | ≥1.0 % by weight
19 | c1cc2cc(CCC3CCCC3)sc2c2c1-c1c-2ccc2cc(CCC3CCCC3)sc12 [Compound 23, 2,7-Bis(2-cyclopentylethyl)biphenyleno[1,2-b:5,6-b′]dithiophene] |  |  | ≥0.2 % by weight | ≥1.0 % by weight
20 | CCCCCc1cc2ccc3cc4c(ccc5cc(CCCC6CCCCC6)sc54)cc3c2s1 [Compound 25, 2-(3-Cyclohexylpropyl)-8-pentylanthra[1,2-b:5,6-b′]dithiophene] |  | remained in solution form |  | 
21 | CCCCCCc1cc2ccc3cc4c(ccc5cc(CCCC6CCCC6)sc54)cc3c2s1 [Compound 31, 2-(3-Cyclopentylpropyl)-8-hexylanthra[1,2-b:5,6-b′]dithiophene] |  | remained in solution form |  | 
22 | CCCCCCCCc1ccc(CCc2cc3ccc4cc5c(ccc6cc(CCC7CCCCC7)sc65)cc4c3s2)cc1 [Compound 40, 2-(2-Cyclohexylethyl)-8-(4-octylphenylethyl)anthra[1,2-b:5,6-b′]dithiophene] |  | remained in solution form |  | 
